From ChEMBL document CHEMBL1201862, “PubChem BioAssay data set” (2004)
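Compound exposure: 48 hours, 5 concentrations, 96-well plates. Here, GI50 denotes the concentration required for 50% inhibition of growth.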 Activity calls are given as the source filed them. Cut-off read from the data, not from the text of the source: active = GI50 up to about 1.1 µM and inactive = higher.

Assays:
Assay in all cases: inhibition of tumour cell growth, NCI panel, 48 h
[1] = system: 786-0
[2] = system: A549
[3] = system: ACHN
[4] = system: CCRF-CEM
[5] = system: HCC 2998
[6] = system: HL-60
[7] = system: Hs-578T
[8] = system: M14
[9] = system: MDA-N
[10] = system: Malme-3M
[11] = system: OVCAR-3
[12] = system: OVCAR-8
[13] = system: PC-3
[14] = system: RXF 393
[15] = system: SF-539
[16] = system: SK-MEL-28
[17] = system: SNB-19
[18] = system: TK-10
[19] = system: UACC-62
[20] = system: UO-31

Measured: GI50

C#CCOCC12C=CC(O1)C1C(=O)OCC12 (stereo not given)
inactive: [1] > 100 µM | [2] > 100 µM | [3] > 100 µM | [4] > 100 µM | [5] > 100 µM | [6] > 100 µM | [7] > 100 µM | [8] > 100 µM | [9] > 100 µM | [10] > 100 µM | [11] > 100 µM | [12] > 100 µM | [13] > 100 µM | [14] > 100 µM | [15] > 100 µM | [16] > 100 µM | [17] > 100 µM | [18] > 100 µM | [19] > 100 µM | [20] > 100 µM

O=C(O)Cc1cc(Cl)ccc1O
inactive: [1] > 100 µM | [2] > 100 µM | [3] > 100 µM | [4] > 100 µM | [5] > 100 µM | [6] > 100 µM | [7] > 100 µM | [8] > 100 µM | [9] > 100 µM | [10] > 100 µM | [11] > 100 µM | [12] > 100 µM | [13] > 100 µM | [14] > 100 µM | [15] > 100 µM | [16] > 100 µM | [17] > 100 µM | [18] > 100 µM | [19] > 100 µM | [20] > 100 µM

C[C@H](CCC(=O)O)[C@H]1CC[C@@]2(C)[C@@H]3C(=O)C[C@H]4C(C)(C)[C@@H](O)CC[C@]4(C)[C@H]3C(=O)C[C@]12C
inactive: [1] > 100 µM | [2] > 100 µM | [3] > 100 µM | [4] > 100 µM | [5] > 100 µM | [6] 25.1 µM | [7] 41.8 µM | [8] > 100 µM | [9] > 100 µM | [10] > 100 µM | [11] > 100 µM | [12] > 100 µM | [13] > 100 µM | [14] > 100 µM | [15] > 100 µM | [16] > 100 µM | [17] > 100 µM | [18] > 100 µM | [19] > 100 µM | [20] 13.9 µM

Cc1cccc2c(N)c3cccc(C(=O)NCC[N+](C)(C)Cc4ccc(S(C)(=O)=O)cc4)c3nc12
inactive: [1] 28 µM | [2] 1.44 µM | [3] 31.4 µM | [4] 7.03 µM | [5] 46.7 µM | [6] 2.8 µM | [7] 19.9 µM | [8] > 100 µM | [9] > 100 µM | [10] 38.5 µM | [11] 67 µM | [12] 79.6 µM | [13] 44.2 µM | [14] 76.7 µM | [15] 32.4 µM | [16] > 100 µM | [17] 18.7 µM | [18] > 89.1 µM | [19] > 95.9 µM | [20] 75.9 µM
